Laboratory results as given in ChEMBL document CHEMBL4834472 (J Med Chem, 2021).
The source made the active and inactive calls. The calls are words filed in the database; no cut-off is given here.

Assays:
[1] = tested on: BaF3; experiment: Antiproliferative activity against mouse BaF3 cells assessed as cell death measured after 72 hrs by resazurin dye based assay; assay type: functional; conditions: BaF3, 72 h
[2] = biological target: Dual specificity tyrosine-phosphorylation-regulated kinase 1B (Homo sapiens) (UniProt Q9Y463); experiment: Inhibition of DYRK1B (unknown origin) assessed as residual activity at 500 nM
[3] = biological target: Cyclin-dependent kinase 2/cyclin E1 (Homo sapiens, UniProt P24941); experiment: Inhibition of CDK2/cyclin E1 (unknown origin) in presence of [32P]gammaATP by image analyser; assay type: protein-complex assay
[4] = biological target: Receptor-type tyrosine-protein kinase FLT3 (Homo sapiens) (UniProt P36888); experiment: Inhibition of FLT3 in human MV4-11 cells assessed as STAT5 phosphorylation at Y694 at 20 to 100 nM incubated for 1 hrs by Western blot analysis; assay type: cell-based; conditions: dose 20-100 nM
[5] = biological target: Cyclin-dependent kinase 1/cyclin B1 (Homo sapiens, UniProt P06493); experiment: Inhibition of CDK1/cyclin B1 (unknown origin) in presence of [32P]gammaATP by image analyser; assay type: protein-complex assay
[6] = tested on: K562; experiment: cells; conditions: Homo sapiens, K562, 72 h
Description: Antiproliferative activity against human K562 cells assessed as cell death measured after 72 hrs by resazurin dye based assay

[7] = tested on: MV4-11; experiment: Induction of apoptosis in human MV4-11 cells assessed as effect on Bcl2 level at 100 nM incubated for 24 hrs by Western blot analysis; assay type: functional, cell-based
[8] = tested on: MOLM-14; experiment: Antiproliferative activity against human MOLM-14 cells harboring D835Y mutant assessed as cell death measured after 72 hrs by resazurin dye based assay; assay type: functional; conditions: MOLM-14, 72 h
[9] = tested on: SEM cells; experiment: Antiproliferative activity against human SEM cells assessed as cell death measured after 72 hrs by resazurin dye based assay; assay type: functional
[10] = tested on: MV4-11; experiment: Antitumor activity against human MV4-11 cells xenografted in NRG mouse assessed as tumor growth inhibition treated at 50 mg/kg, po via gavage daily for 5 days in a week after 15 days of implantation measured after 21 days by luciferase based relative to control; assay type: functional; conditions: MV4-11, po, 504 h, time 21 day
[11] = biological target: Leucine-rich repeat serine/threonine-protein kinase 2 (Homo sapiens) (UniProt Q5S007); experiment: Inhibition of LRRK2 (unknown origin) assessed as residual activity at 500 nM
[12] = tested on: Receptor-type tyrosine-protein kinase FLT3 (Homo sapiens), P36888 [D835Y]; experiment: Inhibition of FLT3 D835Y (unknown origin) assessed as residual activity at 500 nM
[13] = biological target: Receptor-type tyrosine-protein kinase FLT3 (Homo sapiens) (UniProt P36888); experiment: Inhibition of FLT3 in human MV4-11 cells assessed as ERK1/2 phosphorylation at 20 to 100 nM incubated for 1 hrs by Western blot analysis; assay type: cell-based; conditions: dose 20-100 nM

Chain of Cyclin-dependent kinase 1/cyclin B1 (P06493 whole entry): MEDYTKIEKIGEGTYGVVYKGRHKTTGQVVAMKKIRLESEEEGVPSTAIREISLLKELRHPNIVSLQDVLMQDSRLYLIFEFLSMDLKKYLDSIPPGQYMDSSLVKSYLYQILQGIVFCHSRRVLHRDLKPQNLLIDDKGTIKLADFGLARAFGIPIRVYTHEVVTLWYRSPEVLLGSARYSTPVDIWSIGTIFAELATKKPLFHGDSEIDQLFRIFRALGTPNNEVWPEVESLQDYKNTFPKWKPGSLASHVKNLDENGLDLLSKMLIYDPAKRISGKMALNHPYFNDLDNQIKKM
Chain of Cyclin-dependent kinase 1/cyclin B1 (P14635 whole entry, further chain): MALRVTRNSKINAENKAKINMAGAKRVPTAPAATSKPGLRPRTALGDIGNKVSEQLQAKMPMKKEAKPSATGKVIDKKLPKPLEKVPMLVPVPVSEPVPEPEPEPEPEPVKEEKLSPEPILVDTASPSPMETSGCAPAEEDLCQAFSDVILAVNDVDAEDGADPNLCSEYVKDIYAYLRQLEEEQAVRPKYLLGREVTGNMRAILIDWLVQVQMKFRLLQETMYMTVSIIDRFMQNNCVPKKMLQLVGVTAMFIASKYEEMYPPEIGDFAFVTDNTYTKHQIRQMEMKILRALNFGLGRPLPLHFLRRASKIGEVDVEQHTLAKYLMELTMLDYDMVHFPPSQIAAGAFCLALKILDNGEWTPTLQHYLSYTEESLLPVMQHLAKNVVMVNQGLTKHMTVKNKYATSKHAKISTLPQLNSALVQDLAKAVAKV
Chain of Leucine-rich repeat serine/threonine-protein kinase 2 (Homo sapiens) (Q5S007 whole entry): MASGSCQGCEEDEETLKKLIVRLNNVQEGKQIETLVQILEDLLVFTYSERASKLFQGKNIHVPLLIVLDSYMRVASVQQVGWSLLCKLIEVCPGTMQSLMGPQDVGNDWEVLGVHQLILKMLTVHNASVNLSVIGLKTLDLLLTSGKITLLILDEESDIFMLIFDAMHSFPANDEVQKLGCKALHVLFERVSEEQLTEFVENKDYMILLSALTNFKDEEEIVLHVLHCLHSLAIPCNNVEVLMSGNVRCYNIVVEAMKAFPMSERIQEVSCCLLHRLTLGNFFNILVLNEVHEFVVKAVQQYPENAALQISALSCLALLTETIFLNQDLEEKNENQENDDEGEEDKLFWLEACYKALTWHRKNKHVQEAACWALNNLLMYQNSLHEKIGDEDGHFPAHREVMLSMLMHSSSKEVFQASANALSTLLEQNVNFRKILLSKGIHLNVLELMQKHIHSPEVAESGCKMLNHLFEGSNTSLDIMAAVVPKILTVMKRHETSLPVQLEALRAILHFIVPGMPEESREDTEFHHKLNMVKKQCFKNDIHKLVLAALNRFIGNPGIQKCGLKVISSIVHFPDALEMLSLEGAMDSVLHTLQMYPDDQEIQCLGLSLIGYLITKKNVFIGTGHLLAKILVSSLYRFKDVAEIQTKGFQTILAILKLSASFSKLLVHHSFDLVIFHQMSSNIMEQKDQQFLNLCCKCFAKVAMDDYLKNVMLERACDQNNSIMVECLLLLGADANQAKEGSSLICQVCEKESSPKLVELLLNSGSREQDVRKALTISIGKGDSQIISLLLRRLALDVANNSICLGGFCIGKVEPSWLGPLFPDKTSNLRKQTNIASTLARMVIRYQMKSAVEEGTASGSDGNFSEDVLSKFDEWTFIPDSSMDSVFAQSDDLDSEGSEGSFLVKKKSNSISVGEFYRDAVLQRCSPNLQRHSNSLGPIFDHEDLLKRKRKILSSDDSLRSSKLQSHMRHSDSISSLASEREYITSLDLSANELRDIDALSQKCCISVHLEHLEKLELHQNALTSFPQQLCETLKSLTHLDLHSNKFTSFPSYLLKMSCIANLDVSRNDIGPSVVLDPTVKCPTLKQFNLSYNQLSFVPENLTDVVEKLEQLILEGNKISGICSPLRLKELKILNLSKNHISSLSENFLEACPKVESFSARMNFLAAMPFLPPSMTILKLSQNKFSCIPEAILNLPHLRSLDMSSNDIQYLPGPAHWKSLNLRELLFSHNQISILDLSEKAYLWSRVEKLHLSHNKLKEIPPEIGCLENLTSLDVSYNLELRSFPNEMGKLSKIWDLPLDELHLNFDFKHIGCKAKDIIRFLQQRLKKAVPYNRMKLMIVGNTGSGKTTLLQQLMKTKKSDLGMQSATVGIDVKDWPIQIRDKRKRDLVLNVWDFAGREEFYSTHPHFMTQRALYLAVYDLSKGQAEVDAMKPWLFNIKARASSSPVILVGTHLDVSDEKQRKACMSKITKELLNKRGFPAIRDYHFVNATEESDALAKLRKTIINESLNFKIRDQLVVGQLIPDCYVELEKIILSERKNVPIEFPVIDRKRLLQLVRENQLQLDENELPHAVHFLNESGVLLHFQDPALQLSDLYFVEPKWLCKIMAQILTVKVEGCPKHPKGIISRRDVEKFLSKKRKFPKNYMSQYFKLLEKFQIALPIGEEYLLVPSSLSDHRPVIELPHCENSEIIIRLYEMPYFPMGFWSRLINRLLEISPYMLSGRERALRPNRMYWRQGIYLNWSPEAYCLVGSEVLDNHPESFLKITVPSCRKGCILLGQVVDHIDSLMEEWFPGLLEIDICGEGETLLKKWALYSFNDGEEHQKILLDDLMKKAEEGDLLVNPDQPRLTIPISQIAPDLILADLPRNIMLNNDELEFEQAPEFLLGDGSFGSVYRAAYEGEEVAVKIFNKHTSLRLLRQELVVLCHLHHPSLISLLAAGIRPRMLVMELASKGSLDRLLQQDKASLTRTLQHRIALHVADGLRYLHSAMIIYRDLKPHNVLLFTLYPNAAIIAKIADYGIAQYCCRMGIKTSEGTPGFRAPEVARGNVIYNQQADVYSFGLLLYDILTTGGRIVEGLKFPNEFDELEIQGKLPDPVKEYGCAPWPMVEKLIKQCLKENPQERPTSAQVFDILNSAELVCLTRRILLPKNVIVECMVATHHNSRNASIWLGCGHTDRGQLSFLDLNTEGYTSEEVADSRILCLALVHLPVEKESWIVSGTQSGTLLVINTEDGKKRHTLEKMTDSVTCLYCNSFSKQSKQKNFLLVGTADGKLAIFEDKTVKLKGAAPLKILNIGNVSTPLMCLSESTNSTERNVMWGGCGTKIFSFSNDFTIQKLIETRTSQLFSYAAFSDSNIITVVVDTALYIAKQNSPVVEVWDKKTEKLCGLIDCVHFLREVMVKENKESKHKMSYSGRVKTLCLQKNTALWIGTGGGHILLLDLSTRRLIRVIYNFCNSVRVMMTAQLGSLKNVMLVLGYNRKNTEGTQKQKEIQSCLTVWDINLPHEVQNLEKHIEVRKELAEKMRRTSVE
Chain of Dual specificity tyrosine-phosphorylation-regulated kinase 1B (Homo sapiens) (Q9Y463 whole entry, looked up): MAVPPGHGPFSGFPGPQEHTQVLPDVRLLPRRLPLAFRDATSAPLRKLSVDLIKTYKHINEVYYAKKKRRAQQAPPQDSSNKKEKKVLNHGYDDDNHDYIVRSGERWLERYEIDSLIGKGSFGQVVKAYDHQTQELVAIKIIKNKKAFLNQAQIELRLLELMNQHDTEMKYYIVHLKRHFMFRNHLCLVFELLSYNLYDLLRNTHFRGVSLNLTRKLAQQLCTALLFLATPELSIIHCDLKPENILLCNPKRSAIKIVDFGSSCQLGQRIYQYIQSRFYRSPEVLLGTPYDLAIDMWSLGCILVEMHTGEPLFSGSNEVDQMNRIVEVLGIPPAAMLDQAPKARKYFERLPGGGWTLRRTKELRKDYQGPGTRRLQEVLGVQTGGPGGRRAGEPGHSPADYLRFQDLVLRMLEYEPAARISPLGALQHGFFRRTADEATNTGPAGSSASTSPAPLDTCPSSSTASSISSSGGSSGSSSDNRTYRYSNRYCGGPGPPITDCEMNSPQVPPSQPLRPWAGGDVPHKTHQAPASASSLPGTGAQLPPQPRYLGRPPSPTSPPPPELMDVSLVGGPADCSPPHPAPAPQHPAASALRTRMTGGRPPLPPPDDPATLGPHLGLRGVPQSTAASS

Cc1n[nH]c2ccc3nc(-c4c[nH]nc4C(F)(F)F)c4c(c3c12)CCCC4
IC50 [1]: 153000 nM | Activity [2]: 4% | IC50 [3]: 258 nM | inhibition [4]: Active | IC50 [5]: 157 nM | IC50 [6]: 9820 nM | Activity [7]: Active | IC50 [8]: 36 nM | IC50 [9]: 422 nM | inhibition in vivo at 50 mg/kg [10]: 90% | Activity [11]: 4% | Activity [12]: < 2.5% | inhibition [13]: inactive
